The values below come from patent US7049321B2, “Methods and pharmaceutical compositions for treatment of central and peripheral nervous system disorders and compounds useful therefor” (Israel Institute for Biological Research, priority 2002, dated 2006).

Substitutions are numbered along the chain they refer to.

Data set [1] has as its system tau protein. The data set is described as follows: tau-1 immunoreactivity in primary cell cultures (western blot). Conditions: 1–100 μM, cortical and hippocampal cell cultures. Type of data set: cell-based, rat. As for the experimental part: Primary cell cultures were grown as described in EXAMPLE 38. Cell supernatants were removed and the cells were washed once in medium prior to the addition of cold phosphate buffre saline ph=7.4 (PBS) solution containing 0.2 mM EDTA. Cells were scraped using a rubber policeman, transferred to Eppendorf tubes, and centrifuged at 4° C. Cell pellets were resuspended in lysis buffer (EDTA 5 mM, Tris 50 mM, Triton 1%, NaCl 150 mM) containing protease inhibitors (5 units/ml apronitin, […] and 0.1 mM PMSF, Sigma) and subjected to centrifugation at 4° C. Supernatants were transferred into Eppendorf tubes and kept at −20° C. till analyzed. The extent of tau-1 immunoreactivity (an antibody that recognizes a non-phosphorylated tau at Ser^199) was determined by western blots.

Data set [2] concerns cortical and hippocampal cell culture. Kind of data set: Protection against NMDA-induced cell death. Conditions: for Neuroprotective potency against 200 μM of NMDA vs MK801: 100 μM agonist. Type of data set: cell-based, rat.
Data set [3] relates to cells transfected with M1 mAChR. Kind of data set: Apoptosis (DAPI, TUNEL, FACS) after starvation, Aβ or H2O2. In kind it is cell-based, rat. Conditions: for Apoptosis after Aβ or H2O2 (DAPI): DAPI staining.
The test system of data set [4] is C57BL6J mice. Kind of data set: Morris water maze in normal hippocampus mice. Conditions: for Training, escape latency: 0.5 and 1 mg/kg i.p. (rivastigmine, nicotine 1 mg/kg); for Training, path length: AF150(S) only the higher dose; for Reversal test, swimming speed: AF150(S)-0.5 mg/kg, AF267B-1 mg/kg, rivastigmine, nicotine. In kind it is in vivo. As for the experimental part: Each group of mice was randomly divided into 7 treatment groups (n=12-14/group). […] All tested compounds and saline were administered once a day for 4 days before starting the behavioral testing, and then for the duration of the 5-day experiment, 30 minutes before testing.
Training: Each mouse was trained for four consecutive days, four trials (one block) per day, in which the platform position remained constant and was located in the center of the southeast quadrant of the pool. Within each block of four trials, each mouse started at each of the starting locations, but the sequence of locations was randomly selected. A trial consisted of placing a mouse by hand into the water facing the wall of the pool at one of four starting locations, north, south, east or west, around the pool's perimeter. Escape latency (the time to find the platform), path length (the distance traveled by the mouse) and speed (the swimming rate of the mouse) were recorded on each trial by the monitoring system.
For each mouse, the path length, escape latency, and swimming speed of the four trials on each of the 4 training days were grouped into blocks (one block for each day). […] Specific comparisons were performed, using the simple main effects contrasts acalysis, which is specifically suited for testing significant interactions.
Transfer test. During trial No. 17, on the fourth day, the platform was entirely removed from the pool (a probe trial). In this trial, the mouse was placed into the water for a limited period (30 s), and its spatial bias was measured by recording the relative distribution of escape latency and path length over the four quadrants of the pool.
Reversal test. During trials 18–21, on the fifth day, the platform position was changed to the northwest quadrant, opposite to the training quadrant. Thus, during reversal learning, the platform location was moved relative to the configuration of objects within the room, but the pool occupied the same place within the room throughout the entire experiment. Testing of the rats and measures taken were the same as in training.
For each mouse, the escape latency, path length and swimming speed of the reversal test (trials No. 18–21) were grouped into one block.

Data set [5] has as its system AF64A-injected rats. The data set is described as follows: Passive avoidance in AF64A-treated rats. Conditions: for Retention latency: 72 h after training; for Minimal effective dose: p.o.
Data set [6] addresses T1, human M1 (Homo sapiens, UniProt P11229).
T1 sequence (P11229 1-460): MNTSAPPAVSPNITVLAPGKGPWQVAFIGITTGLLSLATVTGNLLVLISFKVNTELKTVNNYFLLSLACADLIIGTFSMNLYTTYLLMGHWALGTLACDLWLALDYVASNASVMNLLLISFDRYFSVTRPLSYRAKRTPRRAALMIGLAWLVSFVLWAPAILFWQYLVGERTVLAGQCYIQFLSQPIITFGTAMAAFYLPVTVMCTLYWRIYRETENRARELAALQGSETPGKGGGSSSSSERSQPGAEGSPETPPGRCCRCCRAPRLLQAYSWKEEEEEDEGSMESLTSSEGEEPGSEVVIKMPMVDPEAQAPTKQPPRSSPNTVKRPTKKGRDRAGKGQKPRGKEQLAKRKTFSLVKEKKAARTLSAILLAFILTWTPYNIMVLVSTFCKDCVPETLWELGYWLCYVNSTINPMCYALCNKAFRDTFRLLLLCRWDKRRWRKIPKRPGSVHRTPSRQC
The data set is described as follows: PI hydrolysis in cells transfected with human M1. The arrangement: expressed in transfected cells. Type of data set: cell-based.

The nature of data set [7]: Protein binding, human plasma. Type of data set: in vitro ADME. As for the experimental part: (§1) Protein binding studies were carried out in human plasma, α1-glycoprotein, human serum albumin (HSA), and Dulbecco's Phosphate Buffered Saline (PBS). AF292 was added to a final concentration of 10 μM. […] (μM) and in human […] (AGP), (see Table 1).
Data set [8] deals with T2, M1 receptors (Rattus norvegicus, UniProt P08482).
T2 construct: from tissue; host or cells: rat cortical membranes
T2 sequence (P08482 1-460): T1 sequence (P11229 1-460) with A5V, T254S, P309S, R320K, A337G, I413V
The data set is described as follows: [3H]PZ competition binding to rat cortical membranes. Conditions: for Ki: rat cortex. An excerpt: Pirenzepine (PZ), a muscarinic antagonist, binds preferentially to M1 receptors while OXO-M binds to all mAChR subtypes non-selectively; the ratio between the Ki values for PZ versus that of OXO-M may be indicative of the selectivity of the tested compound. The smaller the ratio, the more M1 selective is the tested compound. […] The OXO-M/PZ ratio is ˜0.36 showing a moderately high selectivity for the M1 receptor.

Data set [9] has as its system Human α-glycoprotein (AGP). Kind of data set: Protein binding, human α-glycoprotein. In kind it is in vitro ADME. Conditions: 10 μM. The procedure: as §1
Data set [10] has as its target Human serum albumin (HSA) (Homo sapiens, UniProt P02768). The data set is described as follows: Protein binding, human serum albumin. Type of data set: in vitro ADME. Conditions: 10 μM. The procedure:
as §1

Human serum albumin (HSA), sequence (P02768 25-609): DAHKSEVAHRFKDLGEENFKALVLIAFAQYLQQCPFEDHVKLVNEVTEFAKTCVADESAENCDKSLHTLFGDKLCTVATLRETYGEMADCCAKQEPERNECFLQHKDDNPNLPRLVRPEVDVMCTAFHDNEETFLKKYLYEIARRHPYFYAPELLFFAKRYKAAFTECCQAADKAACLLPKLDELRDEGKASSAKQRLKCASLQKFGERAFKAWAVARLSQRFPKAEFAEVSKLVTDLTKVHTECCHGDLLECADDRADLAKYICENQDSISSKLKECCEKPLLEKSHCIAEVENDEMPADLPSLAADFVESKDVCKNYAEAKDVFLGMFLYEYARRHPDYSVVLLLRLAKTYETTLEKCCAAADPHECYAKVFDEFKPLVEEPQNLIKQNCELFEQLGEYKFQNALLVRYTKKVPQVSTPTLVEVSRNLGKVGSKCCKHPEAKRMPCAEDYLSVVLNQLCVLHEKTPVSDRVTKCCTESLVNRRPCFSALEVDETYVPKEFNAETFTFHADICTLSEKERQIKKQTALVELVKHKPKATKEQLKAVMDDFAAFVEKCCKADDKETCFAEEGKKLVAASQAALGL

Take `CC1=NCC2(CCN(C)CC2)S1` [AF150(S), 2,8-Dimethyl-1-thia-3,8-diaza-spiro[4.5]dec-2-ene]: the tau-1 immunoreactivity entry in [1] is listed as “effective in elevating tau immunoreactivity”. In addition, in [2], the “Prevention of NMDA-induced cell death” value is given as “effective in prevention of cell death” and the “Neuroprotective potency against 200 μM of NMDA vs MK801” value was “slightly less”. The “Apoptosis, TUNEL” value in data set [3] (100 μM, 25 μM β-amyloid 25–35) is given as “able to block the apoptosis”. Moreover, in data set [3], the “Apoptosis after Aβ or H2O2 (DAPI)” value was “protect these cells from apoptosis”. In data set [4], the “Training, escape latency” value is “increased the escape latencies”; the “Training, path length” value is recorded as “impaired the path length”; the “Reversal test, swimming speed” value is given as “significantly decreased”. Further, the “Reversal test, escape latency” value in data set [4] (AF150(S) 0.5 mg/kg) is recorded as “impaired the escape latency”. Further, in data set [4] (mouse, in vivo), the “Training, swimming speed” value was “impaired the swimming speed” and the “Transfer test, spatial bias” value is recorded as “partial spatial bias”.
Usually fraction unbound stands for free concentration divided by total concentration. A higher fraction unbound goes with weak binding. Broadly, the Ki is the dissociation constant of the complex between target and ligand, obtained from inhibition or displacement. The compound `CC[C@@H]1SC2(CCNCC2)NC1=O` [AF292, (S)-2-Ethyl-1-thia-4,8-diaza-spiro[4.5]decan-3-one] came in with a Retention latency in data set [5] (1mg/kg p.o.) of 447 ± 46.8 s. For the same compound, in data set [5], the Minimal effective dose result is given as “below 1 mg/kg”. In addition, in [6], the “PI turnover vs. carbachol, M1” value was approximately 35%. Moreover, the fraction unbound at 10 μM in [7] is 0.65. Besides, in data set [8], the OXO-M/PZ ratio is approximately 0.36 and the Ki worked out at 1640 nM. In addition, the “Protein Binding” value in [9] is on record as 0%. Further, the “Protein Binding” value in data set [10] was “Human serum albumin (HSA) = 22%”.
With `CC[C@@H]1SC2(CCN(C)CC2)NC1=O` [AF267B, (S)-2-ethyl-8-methyl-1-thia-4,8-diaza-spiro[4.5]decan-3-one], in [1], the tau-1 immunoreactivity result was “effective in elevating tau immunoreactivity”. The compound also had a Retention latency in data set [5] (0.03 mg/kg p.o.) of 105.7 ± 31.9 s. The compound also returned a Retention latency in data set [5] (0.1 mg/kg p.o.) of 440.7 ± 46.4 s. The Minimal effective dose entry in data set [5] was “less than 0.1 mg/kg”. Further, in data set [2], the “Prevention of NMDA-induced cell death” value is given as “effective in prevention of cell death” and the “Neuroprotective potency against 200 μM of NMDA vs MK801” value is listed as “slightly less”. The “PI turnover vs. carbachol, M1” value in data set [6] was approximately 66%. The compound further yielded a fraction unbound at 10 μM in data set [7] of 0.75. Also, the “Apoptosis after Aβ or H2O2 (DAPI)” value in data set [3] was “protect these cells from apoptosis”. The compound also had a Ki in [8] of 3740 ± 590 nM. Further, in [4], the “Training, escape latency” value is “did not significantly affect”; the “Training, path length” value is listed as “neither AF267B nor rivastigmine had any effect”; the “Reversal test, swimming speed” value was “significantly decreased”. For the same compound, the “Training, swimming speed” value in [4] (mouse, in vivo) is on record as “no such effect”. Also, the “Protein Binding” value in data set [9] was “AGP = 5.7%”. Further, in data set [10], the “Protein Binding” value is listed as “HSA = 32%”.
